Tests used:
[1] = molecular target: T1, recombinant hGYS1/GN1 protein (Homo sapiens, UniProt P13807); assay: GYS1 coupled enzyme assay (PK/LDH); assay type: biochemical; conditions: geometric mean of at least 2 assay runs; NADH absorbance at 340 nm
T1 sequence (P13807 1-737): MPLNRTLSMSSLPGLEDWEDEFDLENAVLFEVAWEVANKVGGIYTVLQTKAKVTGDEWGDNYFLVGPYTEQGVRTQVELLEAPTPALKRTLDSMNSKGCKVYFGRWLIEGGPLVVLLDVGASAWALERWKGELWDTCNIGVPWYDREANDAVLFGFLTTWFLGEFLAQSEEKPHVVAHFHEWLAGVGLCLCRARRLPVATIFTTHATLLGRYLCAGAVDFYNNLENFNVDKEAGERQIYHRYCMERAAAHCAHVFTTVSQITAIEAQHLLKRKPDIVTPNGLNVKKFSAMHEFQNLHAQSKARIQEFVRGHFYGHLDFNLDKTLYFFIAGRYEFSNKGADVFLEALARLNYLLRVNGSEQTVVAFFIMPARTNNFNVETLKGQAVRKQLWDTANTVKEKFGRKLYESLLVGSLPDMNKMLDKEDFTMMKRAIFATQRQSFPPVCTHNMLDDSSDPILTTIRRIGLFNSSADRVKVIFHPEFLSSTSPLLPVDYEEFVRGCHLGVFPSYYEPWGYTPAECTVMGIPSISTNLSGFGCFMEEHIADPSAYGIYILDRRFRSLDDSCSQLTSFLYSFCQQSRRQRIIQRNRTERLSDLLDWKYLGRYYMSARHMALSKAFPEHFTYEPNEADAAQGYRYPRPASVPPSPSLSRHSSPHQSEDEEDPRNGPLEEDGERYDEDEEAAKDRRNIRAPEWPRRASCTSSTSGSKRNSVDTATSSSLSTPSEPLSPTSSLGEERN
T1 sequence (P46976 1-350 partner): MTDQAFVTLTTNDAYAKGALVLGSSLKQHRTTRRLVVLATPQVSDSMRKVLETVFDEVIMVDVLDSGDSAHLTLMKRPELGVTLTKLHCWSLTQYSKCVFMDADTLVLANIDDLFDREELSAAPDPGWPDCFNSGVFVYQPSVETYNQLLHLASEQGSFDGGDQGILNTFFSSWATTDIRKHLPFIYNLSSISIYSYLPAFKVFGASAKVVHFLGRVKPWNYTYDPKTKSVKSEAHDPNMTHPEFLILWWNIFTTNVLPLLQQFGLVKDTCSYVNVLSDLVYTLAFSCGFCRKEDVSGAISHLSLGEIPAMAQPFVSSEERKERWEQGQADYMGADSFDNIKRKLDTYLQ
Text: (§1) The GYS1 coupled enzyme assay is a kinetic biochemical assay that indirectly quantifies the rate of glycogen synthesis by coupling the conversion of GYS1 substrate UDP-glucose into UDP with downstream enzymatic reactions. UDP is released from UDP-glucose as glucose monomers are linked into the growing glycogen strand by GYS1. The coupled assay then proceeds with pyruvate kinase utilizing UDP and phospho(enol)pyruvate (PEP) to form pyruvate. Lactate dehydrogenase then converts pyruvate and NADH into lactate and NAD+. Oxidation of NADH to NAD+ can be measured continuously with a plate reader by quantifying the decrease in NADH absorbance at 340 nm over time.
Compounds that inhibit the hGYS1 enzyme and, subsequently, the downstream conversion of NADH to NAD+, were tested using assay ready plates (black, clear bottom 384 well plates) in a final DMSO reaction volume of 2.5% DMSO. The Assay Buffer contained 50 mM Tris pH 7.5, 2 mM MgCl2, and 100 mM KCl. Fresh stocks of BSA at a final concentration of 0.02% and TCEP at 1 mM were added before splitting buffer into hGYS1 buffer and substrate buffer. To the hGYS1 buffer, rabbit liver glycogen was added at a final concentration of 0.2% glycogen. Glucose-6-Phosphate was added at 1 mM, recombinant hGYS1/GN1 protein was added at 50 nM to the substrate buffer, phosphoenolpyruvate (PEP) was added at 2 mM, UDP-Glucose was added at 0.8 mM, NADH) was added at 0.6 mM, and Pyruvate Kinase/Lactate Dehydrogenase was added at 20 units/mL. The reaction was initiated by mixing hGYS1 buffer and substrate buffer at a 1:1 ratio. Both buffers were plated using a liquid dispensing device with hGYS1 buffer plated first followed by the substrate buffer. Plates were spun briefly to eliminate air bubbles and are immediately read in continuous mode at an absorbance of 340 nm, for 10 time points in one-minute increments, for a total of 10 minutes. The slope from these 10 time points was normalized to the positive and negative control wells. The duplicate % inhibition values are then averaged and fit to a Hill equation for dose response according to the Levenberg-Marquardt algorithm with the Hill equation maximum set to 100 and the minimum set to 0.
The results are shown in Table 3 below, which reports the IC50 of each compound. Unless otherwise specified, IC50 values are reported as the geometric mean of at least 2 assay runs on separate days. Each run represents the average of a technical replicate, where each compound was assayed twice in the same plate. As shown in the table below, the compounds of the present invention are potent inhibitors of human GYS1.

[2] = molecular target: T2, recombinant hGYS2/GN1 protein (Homo sapiens, UniProt P54840); assay: GYS2 coupled enzyme assay (PK/LDH); assay type: biochemical; conditions: geometric mean of at least 2 assay runs; NADH absorbance at 340 nm
T2 sequence (P54840 1-703): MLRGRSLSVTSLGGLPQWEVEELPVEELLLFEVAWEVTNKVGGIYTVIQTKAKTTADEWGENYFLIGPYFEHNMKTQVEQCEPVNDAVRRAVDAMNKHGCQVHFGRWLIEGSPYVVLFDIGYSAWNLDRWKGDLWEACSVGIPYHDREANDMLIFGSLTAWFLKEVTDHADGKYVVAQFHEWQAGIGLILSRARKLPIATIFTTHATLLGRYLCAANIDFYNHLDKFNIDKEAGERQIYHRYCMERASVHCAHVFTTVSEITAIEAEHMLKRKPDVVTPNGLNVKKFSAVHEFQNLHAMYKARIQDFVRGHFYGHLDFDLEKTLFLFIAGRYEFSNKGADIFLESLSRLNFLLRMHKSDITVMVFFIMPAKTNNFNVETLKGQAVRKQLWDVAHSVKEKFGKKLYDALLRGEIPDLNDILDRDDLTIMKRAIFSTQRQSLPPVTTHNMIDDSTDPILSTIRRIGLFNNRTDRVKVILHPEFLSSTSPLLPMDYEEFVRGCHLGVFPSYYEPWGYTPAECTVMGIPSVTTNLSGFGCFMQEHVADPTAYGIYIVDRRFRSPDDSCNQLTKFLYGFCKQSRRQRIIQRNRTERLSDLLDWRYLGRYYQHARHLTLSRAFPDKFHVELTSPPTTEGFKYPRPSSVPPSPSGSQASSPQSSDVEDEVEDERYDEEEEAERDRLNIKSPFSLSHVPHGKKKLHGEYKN
T2 sequence (P46976 1-350 partner): T1 sequence (P46976 1-350 partner)
Text: as §1, with “GYS2” for “GYS1”, “GYS2.” for “GYS1.”
Compounds that inhibit the hGYS2 enzyme and, subsequently, the downstream conversion of NADH to NAD+, were tested using assay ready plates (black, clear bottom 384 well plates) in a final DMSO reaction volume of 2.5% DMSO. The Assay Buffer contained 50 mM Tris pH 7.5, 2 mM MgCl2, and 100 mM KCl. Fresh stocks of BSA at a final concentration of 0.02% and TCEP 1 mM were added before splitting buffer into hGYS2 buffer and substrate buffer. To the hGYS2 buffer, rabbit liver glycogen was added at a final concentration of 0.2% glycogen. Glucose-6-Phosphate was added at 2 mM, recombinant hGYS2/GN1 protein was added at 200 nM to the substrate buffer, phosphoenolpyruvate (PEP) was added at 2 mM, UDP-Glucose was added at 2 mM, NADH was added at 0.6 mM, and Pyruvate Kinase/Lactate Dehydrogenase was added at 20 units/mL. The reaction was initiated by mixing hGYS2 buffer and substrate buffer at a 1:1 ratio. Both buffers were plated using a liquid dispensing device with hGYS2 buffer plated first followed by the substrate buffer. Plates were spun briefly to eliminate air bubbles and are immediately read in continuous mode at an absorbance of 340 nm, for 10 time points in one-minute increments, for a total of 10 minutes. The slope from these 10 time points was normalized to the positive and negative control wells. The duplicate % inhibition values are then averaged and fit to a Hill equation for dose response according to the Levenberg-Marquardt algorithm with the Hill equation maximum set to 100 and the minimum set to 0.
The results are shown in Table 5 below, which reports the IC50 of each compound. Unless otherwise specified, IC50 values are reported as the geometric mean of at least 2 assay runs on separate days. As shown in the table below, the compounds of the present invention are not potent inhibitors of human GYS2. […] Each run represents the average of a technical replicate, where each compound was assayed twice in the same plate.

IC50 [1]	IC50 [2]	Compound
1040 nM	> 100000 nM	COCCN1CCC(C(=O)Nc2ccccc2[C@H](NC(=O)[C@H]2C[C@@H]2F)c2ccc(C(C)C)cc2)CC1 [compound 13, N-(2-((R)-((1R,2S)-2-fluorocyclopropane-1-carboxamido)(4-isopropylphenyl)methyl)phenyl)-1-(2-methoxyethyl)piperidine-4-carboxamide]
891 nM	> 100000 nM	CC(C)c1ccc([C@@H](NC(=O)[C@H]2C[C@@H]2F)c2ccccc2NC(=O)C2CCN(CC3CC3)CC2)cc1 [compound 14, 1-(cyclopropylmethyl)-N-(2-((R)-((1R,2S)-2-fluorocyclopropane-1-carboxamido)(4-isopropylphenyl)methyl)phenyl)piperidine-4-carboxamide]
304 nM	> 100000 nM	CC(C)c1ccc([C@@H](NC(=O)C2CC2)c2ccccc2N/C(N)=N/C#N)cc1 [compound 19, (R,E)-N-((2-(2-cyanoguanidino)phenyl)(4-isopropylphenyl)methyl)cyclopropanecarboxamide]
1190 nM	> 100000 nM	CC(C)c1ccc([C@@H](NC(=O)C2CC2)c2ccccc2NC(=O)C2CN(C)C2)cc1 [compound 26, (R)-N-(2-(cyclopropanecarboxamido(4-isopropylphenyl)methyl)phenyl)-1-methylazetidine-3-carboxamide]
598 nM	> 100000 nM	CC(C)c1ccc([C@@H](NC(=O)[C@@H]2C[C@H]2F)c2ccccc2)cc1 [compound 27, (1S,2R)-2-fluoro-N-((S)-(4-isopropylphenyl)(phenyl)methyl)cyclopropane-1-carboxamide]
418 nM	> 100000 nM	CC(C)c1ccc([C@@H](NC(=O)[C@H]2C[C@@H]2F)c2ccccc2)cc1 [compound 36, (1R,2S)-2-fluoro-N-((S)-(4-isopropylphenyl)(phenyl)methyl)cyclopropane-1-carboxamide]
1060 nM	> 100000 nM	CC(=O)N1CC(C(=O)Nc2ccccc2[C@H](NC(=O)C2CC2)c2ccc(C(C)C)cc2)C1 [compound 37, (R)-1-acetyl-N-(2-(cyclopropanecarboxamido(4-isopropylphenyl)methyl)phenyl)azetidine-3-carboxamide]
1420 nM	> 100000 nM	CC(=O)Nc1ccccc1[C@H](NC(=O)C1CC1)c1ccc(C(C)C)cn1 [compound 46, (S)-N-((2-acetamidophenyl)(5-isopropylpyridin-2-yl)methyl)cyclopropanecarboxamide]
1060 nM	> 100000 nM	CC(C)c1ccc([C@@H](NC(=O)C2CC2)c2ccccc2NC(=O)C2CNC2)cc1 [compound 48, (R)-N-(2-(cyclopropanecarboxamido(4-isopropylphenyl)methyl)phenyl)azetidine-3-carboxamide]
1230 nM	> 100000 nM	CNC(=O)Nc1ccccc1[C@H](NC(=O)C1CC1)c1ccc(C(C)C)cc1 [compound 53, (R)-N-((4-isopropylphenyl)(2-(3-methylureido)phenyl)methyl)cyclopropanecarboxamide]
346 nM	> 100000 nM	CC(C)c1ccc([C@@H](NC(=O)C2CC2)c2ccccc2NC(N)=O)cc1 [compound 54, (R)-N-((4-isopropylphenyl)(2-ureidophenyl)methyl)cyclopropanecarboxamide]
372 nM	> 100000 nM	CC(C)c1ccc([C@@H](NC(=O)C2CC2)c2ccn[nH]2)cc1 [compound 56, (R)-N-((4-isopropylphenyl)(1H-pyrazol-5-yl)methyl)cyclopropanecarboxamide]
2170 nM	> 100000 nM	CC(C)c1ccc([C@@H](NC(=O)C2CC2)c2ccccc2NS(C)(=O)=O)cc1 [compound 57, (R)-N-((4-isopropylphenyl)(2-(methylsulfonamido)phenyl)methyl)cyclopropanecarboxamide]
441 nM	> 100000 nM	CCC(=O)Nc1ccccc1[C@H](NC(=O)C1CC1)c1ccc(C(C)C)cc1 [compound 59, (R)-N-((4-isopropylphenyl)(2-propionamidophenyl)methyl)cyclopropanecarboxamide]

— patent US20260085034A1, “N-(BENZHYDRYL)CYCLOALKYLCARBOXAMIDE DERIVATIVES AS INHIBITORS OF GLYCOGEN SYNTHASE 1 (GYS1) AND METHODS OF USE THEREOF” (Maze Therapeutics, Inc., priority 2022, published 2026)
